One test deals with T1, TOP^-TrpW390 (Rattus norvegicus, UniProt P24155, W124F/W335F/W511F/W513F/W614F).
T1 construct: made in house; host or cells: Escherichia coli BL21 (DE3), pET26b
Kind of test: Inhibition constant of JA-2, continuous assay with QFS, TOP^-TrpW390. In kind it is biochemical. The settings on record: substrate QFS, 37 °C, 50 mM Tris-HCl pH 7.4, 100 mM NaCl, 0.5 mM DTT. As for the experimental part:
(§1) WT TOP and mutant activities were monitored spectrofluorometrically in a Shimadzu RF-5301PC spectrofluorometer using the FRET peptide QFS (Mca-Pro-Leu-Gly-Pro-D-Lys (Dnp)-OH) as substrate, with excitation and emission wavelengths of 320 and 420 nm, respectively. TOP and its mutants were pre-activated by incubation with 0.5 mM DTT for 5 min at 37 °C. The concentration of the peptide solutions was determined by measuring the absorption of the 2,4-dinitrophenyl group at 365 nm (ε = 17,300 M^−1cm^−1). The kinetic parameters of peptide hydrolysis were determined at 37 °C in 50 mM Tris-HCl buffer, pH 7.4, containing 100 mM NaCl. […] The reaction was monitored continuously via the fluorescence of the released product. The rate of increase in fluorescence was converted into moles of substrate hydrolyzed per second based on the fluorescence curves of standard peptide solutions before and after total enzymatic hydrolysis. […] An empirical equation was used to correct for the inner-filter effect, and the kinetic parameters were calculated according to Wilkinson and by using Eadie–Hofstee plots. […]
(§2) Inhibition constants were determined using the TOP inhibitor JA-2 (N-[1-(R,S)-carboxy-3-phenylpropyl]Ala-Aib-Tyr-p-aminobenzoate). The constants were determined in a continuous assay using the FRET peptide QFS as substrate. […]

A further test has as its target T2, WT TOP (Rattus norvegicus, UniProt P24155).
T2 construct: made in house; host or cells: Escherichia coli BL21 (DE3), pET26b
Kind of test: Inhibition constant of JA-2, continuous assay with QFS, WT TOP. In kind it is biochemical. The conditions noted are these: substrate QFS, 37 °C, 50 mM Tris-HCl pH 7.4, 100 mM NaCl, 0.5 mM DTT. The protocol: as §1, §2

In test [1] the target is T3, TOP^-TrpW390/L215pNF (Rattus norvegicus, UniProt P24155, L215F/W124F/W335F/W511F/W513F/W614F).
T3 construct: made in house; host or cells: Escherichia coli BL21 (DE3), pET26b + pACYC184 (orthogonal tRNA/synthetase pair for pNF)
Description: Inhibition constant of JA-2, continuous assay with QFS, TOP^-TrpW390/L215pNF. The conditions noted are these: substrate QFS, 37 °C, 50 mM Tris-HCl pH 7.4, 100 mM NaCl, 0.5 mM DTT. In kind it is biochemical. The protocol: as §1, §2

In test [2] the target is T4, TOP^-TrpW390/L182pNF (Rattus norvegicus, UniProt P24155, L182F/W124F/W335F/W511F/W513F/W614F).
T4 construct: made in house; host or cells: Escherichia coli BL21 (DE3), pET26b + pACYC184 (orthogonal tRNA/synthetase pair for pNF)
Kind of test: Protein fluorescence (Trp-pNF FRET) assay in presence of JA-2, TOP^-TrpW390/L182pNF.

Test [3] deals with T5, TOP^-TrpW390/F178pNF (Rattus norvegicus, UniProt P24155, W124F/W335F/W511F/W513F/W614F).
T5 construct: made in house; host or cells: Escherichia coli BL21 (DE3), pET26b + pACYC184 (orthogonal tRNA/synthetase pair for pNF)
Kind of test: Inhibition constant of JA-2, continuous assay with QFS, TOP^-TrpW390/F178pNF. In kind it is biochemical. The settings on record: substrate QFS, 37 °C, 50 mM Tris-HCl pH 7.4, 100 mM NaCl, 0.5 mM DTT. As for the experimental part:
as §1, §2

Test [4] has as its target T6, TOP^-TrpW390/Y224pNF (Rattus norvegicus, UniProt P24155, W124F/W335F/W511F/W513F/W614F/Y224F).
T6 construct: made in house; host or cells: Escherichia coli BL21 (DE3), pET26b + pACYC184 (orthogonal tRNA/synthetase pair for pNF)
Description: Inhibition constant of JA-2, continuous assay with QFS, TOP^-TrpW390/Y224pNF. In kind it is biochemical. The conditions noted are these: substrate QFS, 37 °C, 50 mM Tris-HCl pH 7.4, 100 mM NaCl, 0.5 mM DTT. As for the experimental part: as §1, §2

Test [5] deals with T5, TOP^-TrpW390/F178pNF. Kind of test: Protein fluorescence (Trp-pNF FRET) assay in presence of JA-2, TOP^-TrpW390/F178pNF.
Test [6] concerns the target T4, TOP^-TrpW390/L182pNF. Description: Inhibition constant of JA-2, continuous assay with QFS, TOP^-TrpW390/L182pNF. In kind it is biochemical. The conditions noted are these: substrate QFS, 37 °C, 50 mM Tris-HCl pH 7.4, 100 mM NaCl, 0.5 mM DTT. As for the experimental part:
as §1, §2

Test [7] addresses T6, TOP^-TrpW390/Y224pNF. Description: Protein fluorescence (Trp-pNF FRET) assay in presence of JA-2, TOP^-TrpW390/Y224pNF.
Test [8] concerns the target T3, TOP^-TrpW390/L215pNF. Kind of test: Protein fluorescence (Trp-pNF FRET) assay in presence of JA-2, TOP^-TrpW390/L215pNF.
[9] abbreviates: 13.4 µM JA-2, 0.5 µM TOP protein, 37 °C, 50 mM Tris-HCl pH 7.4, 100 mM NaCl, 0.5 mM DTT.
[10] abbreviates: 13.4 µM JA-2, calculated using Equation (1), R0 = 15.8 Å.

SMILES strings stand for the structures.

Consider 1 compound from publication PMC9266445, “Probing the Conformational States of Thimet Oligopeptidase in Solution” (International Journal of Molecular Sciences, 2022).

One may read the Ki as a dissociation constant, usually derived from enzyme kinetics or from competition with a known ligand. A lower Ki goes with higher affinity.

T6 sequence (P24155 whole entry W124F/Y224F/W335F/W511F/W513F/W614F): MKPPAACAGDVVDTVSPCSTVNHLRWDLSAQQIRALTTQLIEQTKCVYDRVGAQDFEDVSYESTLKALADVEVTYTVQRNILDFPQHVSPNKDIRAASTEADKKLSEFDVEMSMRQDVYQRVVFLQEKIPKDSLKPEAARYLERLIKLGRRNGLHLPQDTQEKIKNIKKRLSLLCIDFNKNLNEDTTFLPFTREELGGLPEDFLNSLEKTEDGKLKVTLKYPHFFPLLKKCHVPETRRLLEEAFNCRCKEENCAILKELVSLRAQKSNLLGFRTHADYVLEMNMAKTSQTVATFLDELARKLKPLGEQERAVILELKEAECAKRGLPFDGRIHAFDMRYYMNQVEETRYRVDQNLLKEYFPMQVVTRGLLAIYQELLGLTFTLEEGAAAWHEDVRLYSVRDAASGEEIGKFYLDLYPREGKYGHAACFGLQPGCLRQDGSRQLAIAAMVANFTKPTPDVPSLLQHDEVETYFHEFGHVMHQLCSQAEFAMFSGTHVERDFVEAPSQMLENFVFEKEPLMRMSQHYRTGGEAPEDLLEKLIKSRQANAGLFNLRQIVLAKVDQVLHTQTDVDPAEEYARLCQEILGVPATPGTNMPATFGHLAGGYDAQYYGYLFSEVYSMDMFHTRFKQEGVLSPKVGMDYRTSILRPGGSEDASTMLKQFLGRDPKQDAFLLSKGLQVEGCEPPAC
T3 sequence (P24155 whole entry W124F/L215F/W335F/W511F/W513F/W614F): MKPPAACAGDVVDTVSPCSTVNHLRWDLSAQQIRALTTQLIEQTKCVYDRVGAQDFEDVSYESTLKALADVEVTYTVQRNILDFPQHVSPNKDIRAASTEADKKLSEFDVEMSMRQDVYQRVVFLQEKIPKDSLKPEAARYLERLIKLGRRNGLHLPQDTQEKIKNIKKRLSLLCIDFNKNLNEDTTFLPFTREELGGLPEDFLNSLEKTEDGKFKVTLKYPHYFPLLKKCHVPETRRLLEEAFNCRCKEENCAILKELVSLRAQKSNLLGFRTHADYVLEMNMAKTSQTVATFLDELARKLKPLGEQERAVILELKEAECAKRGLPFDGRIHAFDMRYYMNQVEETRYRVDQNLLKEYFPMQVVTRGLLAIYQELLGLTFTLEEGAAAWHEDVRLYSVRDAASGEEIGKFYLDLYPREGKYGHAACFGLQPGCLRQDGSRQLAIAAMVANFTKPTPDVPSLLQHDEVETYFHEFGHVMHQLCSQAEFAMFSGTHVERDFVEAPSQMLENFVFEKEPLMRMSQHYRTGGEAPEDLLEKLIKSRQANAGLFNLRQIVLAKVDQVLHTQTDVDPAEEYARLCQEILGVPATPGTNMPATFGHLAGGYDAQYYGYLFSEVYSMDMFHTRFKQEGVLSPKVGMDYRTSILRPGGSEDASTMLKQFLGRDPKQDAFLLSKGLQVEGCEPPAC
T5 sequence (P24155 whole entry W124F/W335F/W511F/W513F/W614F): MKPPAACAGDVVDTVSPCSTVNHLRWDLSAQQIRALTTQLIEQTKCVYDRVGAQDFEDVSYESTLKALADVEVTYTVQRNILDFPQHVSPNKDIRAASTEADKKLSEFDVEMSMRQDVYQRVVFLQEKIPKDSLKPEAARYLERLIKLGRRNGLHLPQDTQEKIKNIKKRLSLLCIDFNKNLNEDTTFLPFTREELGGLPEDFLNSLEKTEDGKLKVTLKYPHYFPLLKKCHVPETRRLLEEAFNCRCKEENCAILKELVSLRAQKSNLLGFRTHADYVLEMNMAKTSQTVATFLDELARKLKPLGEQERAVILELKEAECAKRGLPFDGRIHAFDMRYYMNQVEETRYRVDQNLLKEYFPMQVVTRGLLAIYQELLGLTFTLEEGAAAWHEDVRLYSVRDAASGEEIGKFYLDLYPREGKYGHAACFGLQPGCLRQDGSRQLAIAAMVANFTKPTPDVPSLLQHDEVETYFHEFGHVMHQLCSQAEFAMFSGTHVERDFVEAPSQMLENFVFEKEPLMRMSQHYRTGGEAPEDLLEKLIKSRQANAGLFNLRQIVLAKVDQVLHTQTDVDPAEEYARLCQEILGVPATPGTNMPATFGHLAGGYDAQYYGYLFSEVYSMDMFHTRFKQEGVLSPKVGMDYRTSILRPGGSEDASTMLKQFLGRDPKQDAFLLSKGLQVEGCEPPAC
T4 sequence (P24155 whole entry W124F/L182F/W335F/W511F/W513F/W614F): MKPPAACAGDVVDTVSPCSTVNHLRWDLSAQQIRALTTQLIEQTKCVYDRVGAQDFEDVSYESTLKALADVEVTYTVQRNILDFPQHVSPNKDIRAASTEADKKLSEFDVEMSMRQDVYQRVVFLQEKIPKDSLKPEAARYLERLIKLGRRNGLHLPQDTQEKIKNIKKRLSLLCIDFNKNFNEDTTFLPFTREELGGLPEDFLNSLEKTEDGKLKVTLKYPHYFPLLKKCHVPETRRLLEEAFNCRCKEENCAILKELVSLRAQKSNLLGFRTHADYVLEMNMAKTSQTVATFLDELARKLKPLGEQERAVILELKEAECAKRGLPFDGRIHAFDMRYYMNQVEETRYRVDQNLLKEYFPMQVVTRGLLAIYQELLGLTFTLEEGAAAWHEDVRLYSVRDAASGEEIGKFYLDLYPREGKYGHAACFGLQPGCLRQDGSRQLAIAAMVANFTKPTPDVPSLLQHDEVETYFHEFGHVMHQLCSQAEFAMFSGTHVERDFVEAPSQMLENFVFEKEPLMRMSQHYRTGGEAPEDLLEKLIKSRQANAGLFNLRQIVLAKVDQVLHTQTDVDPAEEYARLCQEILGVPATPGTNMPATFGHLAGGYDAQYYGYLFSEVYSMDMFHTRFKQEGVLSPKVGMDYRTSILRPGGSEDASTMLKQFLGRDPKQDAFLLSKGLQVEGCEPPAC
T2 sequence (P24155 whole entry): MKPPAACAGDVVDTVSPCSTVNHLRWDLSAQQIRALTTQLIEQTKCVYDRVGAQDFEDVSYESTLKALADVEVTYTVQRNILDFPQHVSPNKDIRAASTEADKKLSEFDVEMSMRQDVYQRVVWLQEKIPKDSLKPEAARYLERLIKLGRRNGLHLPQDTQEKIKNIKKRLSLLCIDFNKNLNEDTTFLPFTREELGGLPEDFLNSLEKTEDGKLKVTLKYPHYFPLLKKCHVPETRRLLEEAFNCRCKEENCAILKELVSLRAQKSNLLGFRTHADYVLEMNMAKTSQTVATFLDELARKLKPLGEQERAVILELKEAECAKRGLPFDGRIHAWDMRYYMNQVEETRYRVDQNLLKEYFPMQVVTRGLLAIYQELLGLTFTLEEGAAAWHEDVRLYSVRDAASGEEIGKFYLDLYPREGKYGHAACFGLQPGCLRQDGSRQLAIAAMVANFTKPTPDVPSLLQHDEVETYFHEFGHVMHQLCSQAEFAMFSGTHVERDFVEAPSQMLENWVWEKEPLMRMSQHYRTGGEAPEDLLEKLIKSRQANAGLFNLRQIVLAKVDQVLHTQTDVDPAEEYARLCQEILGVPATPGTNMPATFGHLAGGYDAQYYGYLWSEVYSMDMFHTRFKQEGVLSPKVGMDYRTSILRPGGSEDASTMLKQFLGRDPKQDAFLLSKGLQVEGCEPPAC
T1 sequence (P24155 whole entry W124F/W335F/W511F/W513F/W614F): as the sequence (P24155 whole entry W124F/W335F/W511F/W513F/W614F) above

For the compound `C[C@H](NC(CCc1ccccc1)C(=O)O)C(=O)NC(C)(C)C(=O)N[C@@H](Cc1ccc(O)cc1)C(=O)Nc1ccc(C(=O)O)cc1` (stereo partly drawn) [JA-2, N-[1-(R,S)-carboxy-3-phenylpropyl]Ala-Aib-Tyr-p-aminobenzoate], the Ki worked out at 750 ± 40 nM on TOP^-TrpW390; 32 ± 1 nM on WT TOP; 870 ± 50 nM on TOP^-TrpW390/L215pNF [1]; 1230 ± 80 nM on TOP^-TrpW390/F178pNF [3]; 1160 ± 60 nM on TOP^-TrpW390/Y224pNF [4]; 740 ± 60 nM at TOP^-TrpW390/L182pNF [6]. Moreover, the “FRET Efficiency, +JA-2” value at TOP^-TrpW390/L182pNF [2] (setting [9]) is 0.24 ± 0.02; on TOP^-TrpW390/F178pNF [5] (setting [9]), 0.150 ± 0.009; at TOP^-TrpW390/Y224pNF [7] (setting [9]) it was 0.30 ± 0.02; on TOP^-TrpW390/L215pNF [8] (setting [9]), 0.10 ± 0.005. Also, the “D-A Distance, +JA-2” value at TOP^-TrpW390/L182pNF [2] (setting [10]) was 19 Å; at TOP^-TrpW390/F178pNF [5] (setting [10]) it was 21 Å; on TOP^-TrpW390/Y224pNF [7] (setting [10]) it was 18 Å; at TOP^-TrpW390/L215pNF [8] (setting [10]) it was 23 Å.
